In patent US5216011A (priority 1989, dated 1993):
Like-named read-outs stand apart in the source and are kept apart here.

Columns and labels:
[1] = Stability of mitomycin C (5 mg/mL) in polyethylene glycols; type: physicochemical
[2] = cited from earlier work; for stable for: 20-40 mcg/mL, room temperature; for degradation product: aqueous
[3] = Solution stability of mitomycin C in non-aqueous solvents (Table V); type: physicochemical
From the text: ^a All solutions on test in amber vials and nitrogen purged.
^b The pH of these vehicles was adjusted to 7.0 with citric acid.
^c Dried over molecular sieve.

[4] = neutral pH, unbuffered solution, Ref. 6; cited from earlier work
[5] = Pseudo first-order rate constants for degradation of mitomycin C in neat propylene glycol; type: physicochemical
Procedure: ^a Data were taken from Table VI. m:month.
^b Predicted from 40° C. data.

[6] = From the text: The effect of pretreatment of propylene glycol with sodium bicarbonate and carbon (Darco G-60) was investigated.
[7] = Predicted stability of mitomycin C at different temperatures (aqueous degradation kinetics)
[8] = Apparent pH of propylene glycol before and after sodium bicarbonate treatment; type: physicochemical; details: after 1:10 dilution with water
Procedure: Into a 50 mL Erlenmeyer flask containing 25 mL of neat propylene glycol was added 25 mg sodium bicarbonate. The mixture was stirred for 10 minutes. After standing for 30 minutes, the mixture was then filtered through a Millex-SR filter (Millipore Corp., P/N#SLSR025NS) to remove undissolved sodium bicarbonate. Apparent pH of propylene glycol before and after the treatment (after 1:10 dilution with water) was measured and were 6.5 and 8.4, respectively.

CO[C@@]12[C@H](COC(N)=O)C3=C(C(=O)C(C)=C(N)C3=O)N1C[C@@H]1N[C@@H]12 [mitomycin C]
Stability ([1]; PEG 200, 300 and 400): poor and variable stability | Effect of purging with nitrogen on stability ([1]; PEG 400): improved stability | Effect of pH adjustment to 6.2 on stability ([1]; PEG 400, sodium glycodeoxycholate): unsuccessful | Effect of propyl gallate on stability ([1]; PEG, nitrogen purged solutions): not to improve stability | stable for ([2]; 0.9% sodium chloride injection): 12 h | stable for ([2]; 5% dextrose injection): 3 h | pH of maximum stability ([2]; aqueous solutions): 7-8 | degradation product ([2]; pH above 7): hydrolyzed to 7-hydroxymitosane | degradation product ([2]; pH below 7): converted to 1-hydroxy-2,7-diaminomitosanes | time to loss of 10% potency ([2]; in water at 25° C.): about 40 days | stable for ([2]; sodium/lactate injection): 24 h | Stability ([3]; 2-pyrrolidone (2-Pyr)): Slightly lower stability | Stability ([3]; DMA, NMP and PG): Excellent stability | Stability ([3]; ethanol): surprisingly poor | Effect of addition of 2% water on stability ([3]; propylene glycol, vs neat solvent): appeared to increase stability | E act (activation energy for decomposition) [4]: 19.4 kcal/mol | Arrhenius activation energy, Ea ([5]; 4-40° C.): 16.5 kcal/mol | time for which potency will remain greater than 90% of initial ([5]; 4° C.): more than 30 months | t90 ([5]; 4 °C): 38 months | 10^2 ko (pseudo first-order rate constant) ([5]; 4 °C (277 K), m: month): 0.276 m^-1 | t90 predicted from 40° C. data ([5]; 4 °C, m: month): 39 m | t90 ([5]; 25 °C): 3.9 months | 10^2 ko (pseudo first-order rate constant) ([5]; 25 °C (298 K), m: month): 2.69 m^-1 | t90 ([5]; 40 °C): 37 days | 10^2 ko (pseudo first-order rate constant) ([5]; 40 °C (313 K), m: month): 8.40 m^-1 | Effect of air vs. nitrogen on stability ([6]; PG and PG/water, 25° C.): more stable in the presence of nitrogen | Stability ([6]; all PG formulations, 25° C. and 4° C.): Excellent stability | Stability ([6]; glycerin): poor stability | Effect of 5% and 10% water on stability ([6]; propylene glycol): do not adversely affect, and may actually improve, mitomycin C stability | Effect of pretreatment of propylene glycol with carbon (Darco G-60) on stability ([6]; propylene glycol): did not significantly improve mitomycin C stability | Effect of pretreatment of propylene glycol with sodium bicarbonate on stability ([6]; propylene glycol): significantly improved | Effect of three antioxidants on stability ([6]; propylene glycol, vs control solution): do not significantly improve mitomycin C stability | t50 ([7]; 5° C., predicted): 7.6 y | t90 ([7]; 5° C., predicted): 420 days | decomposition rate constant ([7]; 5° C., predicted from E act): 1.04e-05 h⁻¹ | predicted t90 ([7]; 5° C., unbuffered aqueous solution): about one | t50 ([7]; 25° C.): 0.7 y | t90 ([7]; 25° C.): 40 days | decomposition rate constant ([7]; 25° C., 0.05M phosphate buffer, pH 7.43): 0.00011 h⁻¹ | time until potency falls to 90% of its original value ([7]; in water, 25° C.): 40 days

CC(O)CO (stereo not drawn) [propylene glycol]
Apparent pH after treatment ([8]; after sodium bicarbonate treatment): 8.4 | Apparent pH before treatment ([8]; before sodium bicarbonate treatment): 6.5
